This note sets out measurements from US8541418B2, “Inhibitors of polo-like kinase” (Elan Pharmaceutical, Inc., priority 2009, dated 2013).

What all share (format): biochemical
For one assay, the target named is PLK2 (Homo sapiens, UniProt Q9NYY3). Briefly: PLK TR-FRET peptide assay, PLK2. Conditions: for IC50: read-out: Plk2 IC50. (In general: In TR-FRET formats the signal depends on donor and acceptor labels being close together.)
The target in the next assay is PLK3 (Homo sapiens, UniProt Q9H4B4). Kind of assay: PLK TR-FRET peptide assay, PLK3. Conditions: GST-PLK3, 15 min reaction, read-out: Plk3 IC50.
PLK3, sequence (Q9H4B4 whole entry): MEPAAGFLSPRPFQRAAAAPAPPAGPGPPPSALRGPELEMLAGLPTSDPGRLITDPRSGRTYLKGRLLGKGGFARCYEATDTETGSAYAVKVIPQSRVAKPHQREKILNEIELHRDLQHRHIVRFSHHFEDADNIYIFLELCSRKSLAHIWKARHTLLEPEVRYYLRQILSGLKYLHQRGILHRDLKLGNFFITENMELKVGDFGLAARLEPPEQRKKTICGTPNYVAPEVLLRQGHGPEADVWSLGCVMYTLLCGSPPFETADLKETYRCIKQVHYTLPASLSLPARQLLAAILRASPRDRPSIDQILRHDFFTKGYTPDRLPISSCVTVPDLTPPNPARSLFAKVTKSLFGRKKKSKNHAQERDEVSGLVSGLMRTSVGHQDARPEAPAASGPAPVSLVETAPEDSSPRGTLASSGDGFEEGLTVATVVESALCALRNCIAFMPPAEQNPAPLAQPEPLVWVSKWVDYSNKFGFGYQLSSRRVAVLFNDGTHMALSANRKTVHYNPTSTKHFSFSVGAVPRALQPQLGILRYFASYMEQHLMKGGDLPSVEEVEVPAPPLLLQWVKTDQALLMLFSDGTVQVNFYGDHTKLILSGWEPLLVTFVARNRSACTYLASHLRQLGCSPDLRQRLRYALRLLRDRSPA
The target of a further assay is PLK1 (Homo sapiens, UniProt P53350). Kind of assay: PLK TR-FRET peptide assay, PLK1. Particulars: GST-PLK1, 60 min reaction.
PLK1, sequence (P53350 whole entry): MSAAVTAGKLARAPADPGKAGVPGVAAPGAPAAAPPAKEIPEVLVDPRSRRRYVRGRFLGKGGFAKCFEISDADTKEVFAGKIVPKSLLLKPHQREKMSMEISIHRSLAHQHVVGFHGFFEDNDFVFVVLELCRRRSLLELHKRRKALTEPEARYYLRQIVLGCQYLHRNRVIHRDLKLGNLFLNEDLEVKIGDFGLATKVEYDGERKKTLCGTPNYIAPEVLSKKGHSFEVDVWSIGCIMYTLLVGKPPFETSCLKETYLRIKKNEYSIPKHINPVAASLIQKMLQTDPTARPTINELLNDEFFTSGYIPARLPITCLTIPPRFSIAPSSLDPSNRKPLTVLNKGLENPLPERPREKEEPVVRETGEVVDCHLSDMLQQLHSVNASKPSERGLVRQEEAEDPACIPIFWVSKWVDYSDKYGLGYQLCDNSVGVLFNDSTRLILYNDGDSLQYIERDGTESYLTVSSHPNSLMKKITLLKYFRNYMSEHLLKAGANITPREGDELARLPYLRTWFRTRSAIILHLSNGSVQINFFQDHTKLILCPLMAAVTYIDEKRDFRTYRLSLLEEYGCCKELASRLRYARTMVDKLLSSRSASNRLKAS
The mark [1] stands for this setting: PLK TR-FRET peptide assay, GST-PLK2, 60 min reaction.

Like-named read-outs stand apart in the source and are kept apart here. Bounds are passed on as bounds.

PLK2, sequence (Q9NYY3 whole entry): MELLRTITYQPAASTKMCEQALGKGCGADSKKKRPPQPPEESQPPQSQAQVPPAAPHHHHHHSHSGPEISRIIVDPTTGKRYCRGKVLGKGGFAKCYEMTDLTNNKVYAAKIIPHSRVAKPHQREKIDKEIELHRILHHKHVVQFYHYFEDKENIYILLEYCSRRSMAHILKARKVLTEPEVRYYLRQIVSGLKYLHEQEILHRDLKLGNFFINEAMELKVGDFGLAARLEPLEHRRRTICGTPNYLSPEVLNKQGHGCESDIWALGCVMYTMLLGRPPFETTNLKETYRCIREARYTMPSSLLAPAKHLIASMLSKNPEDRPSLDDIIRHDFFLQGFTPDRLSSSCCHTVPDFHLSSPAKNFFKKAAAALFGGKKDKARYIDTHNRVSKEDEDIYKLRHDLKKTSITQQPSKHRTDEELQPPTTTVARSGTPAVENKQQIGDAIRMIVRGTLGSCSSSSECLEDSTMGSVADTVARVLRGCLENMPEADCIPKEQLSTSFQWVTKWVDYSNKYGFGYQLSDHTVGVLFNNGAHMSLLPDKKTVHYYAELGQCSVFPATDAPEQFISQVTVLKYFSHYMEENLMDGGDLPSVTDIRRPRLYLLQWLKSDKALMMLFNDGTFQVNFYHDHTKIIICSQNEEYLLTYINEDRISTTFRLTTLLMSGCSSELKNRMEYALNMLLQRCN

Take `CC[C@@H]1C(=O)N(C)c2cnc(-c3ccncc3NC(=O)OC(C)(C)C)nc2N1C(C)C` [Example 94, (R)-tert-butyl 4-(7-ethyl-8-isopropyl-5-methyl-6-oxo-5,6,7,8-tetrahydropteridin-2-yl)pyridin-3-ylcarbamate]: the figures for the half-inhibitory concentration (IC50) at PLK2 (setting [1]), at PLK3 and on PLK1 were 1 to 10 µM, above 50 µM and 10 to 50 µM, respectively.
Consider `CC[C@@H]1C(=O)N(C)c2cnc(-c3nccnc3-c3ccc(C(F)(F)F)cc3)nc2N1C(C)C` [Example 175, (R)-7-ethyl-8-isopropyl-5-methyl-2-(3-(4-(trifluoromethyl)phenyl)pyrazin-2-yl)-7,8-dihydropteridin-6(5H)-one], for which the IC50 (usually the concentration needed to halve the response being measured) on PLK2 (setting [1]) fell in the range of 1 to 10 µM; at PLK3, 10 to 50 µM; on PLK1, 1 to 10 µM.
For the compound `CC[C@@]12CCCN1c1nc(-n3ccnc3-c3ccc(F)c(Cl)c3)ncc1N(C)C2=O` [Example 213, (S)-2-(2-(3-chloro-4-fluorophenyl)-1H-imidazol-1-yl)-6a-ethyl-5-methyl-6a,7,8,9-tetrahydropyrrolo[2,1-h]pteridin-6(5H)-one], the IC50 at PLK2 (setting [1]) was below 1 µM; at PLK3, 10 to 50 µM; at PLK1, 10 to 50 µM.
In the case of `CC[C@@H]1C(=O)N(C)c2cnc(-n3ccnc3-c3ccncc3)nc2N1C(C)C` [Example 150, (R)-7-ethyl-8-isopropyl-5-methyl-2-(2-(pyridin-4-yl)-1H-imidazol-1-yl)-7,8-dihydropteridin-6(5H)-one], the figures for the half-inhibitory concentration (IC50) at PLK2 (setting [1]), on PLK3 and at PLK1 were below 1 µM, 1 to 10 µM and 10 to 50 µM, respectively.
The like results for `[2H]C([2H])([2H])N1C(=O)C(C([2H])([2H])C([2H])([2H])[2H])N(C([2H])(C([2H])([2H])[2H])C([2H])([2H])[2H])c2nc(-c3c[nH]nc3-c3ccccc3)ncc21` (stereo not shown) [Example 165, 7-perdeuteroethyl-8-perdeuteroisopropyl-5-trideuteromethyl-2-(3-phenyl-1H-pyrazol-4-yl)-7,8-dihydropteridin-6(5H)-one] were, in that order, below 1 µM, 1 to 10 µM and below 1 µM.
In the case of `[2H]C([2H])([2H])N1C(=O)[C@H](C([2H])([2H])C([2H])([2H])[2H])N(C([2H])(C([2H])([2H])[2H])C([2H])([2H])[2H])c2nc(-n3ccnc3-c3cc(F)cc(F)c3)ncc21` [Example 178, (S)-2-(2-(3,5-difluorophenyl)-1H-imidazol-1-yl)-7-perdeuteroethyl-8-perdeuteroisopropyl-5-trideuteromethyl-7,8-dihydropteridin-6(5H)-one], the IC50 at PLK2 (setting [1]) is 10 to 50 µM; on PLK3 it was above 50 µM; against PLK1 it was above 50 µM.
Consider `[2H]C([2H])([2H])N1C(=O)C(C([2H])([2H])C([2H])([2H])[2H])N(C([2H])(C([2H])([2H])[2H])C([2H])([2H])[2H])c2nc(-n3ccnc3-c3ccc(F)cc3)ncc21` (racemic) [Example 162, 7-perdeuteroethyl-2-(2-(4-fluorophenyl)-1H-imidazol-1-yl)-8-perdeuteroisopropyl-5-trideuteromethyl-7,8-dihydropteridin-6(5H)-one], for which the IC50 on PLK2 (setting [1]) was below 1 µM; at PLK3, 1 to 10 µM; against PLK1, 1 to 10 µM.
Take `CC[C@@H]1C(=O)Nc2cnc(-n3cccn3)nc2N1C1CCCC1` [Example 29, (R)-8-cyclopentyl-7-ethyl-2-(1H-pyrazol-1-yl)-7,8-dihydropteridin-6(5H)-one]: the concentration for half-maximal inhibition (IC50) on PLK2 (setting [1]), on PLK3 and at PLK1 was above 50 µM throughout.
In the case of `CCC12CCCCN1c1nc(-n3ccnc3-c3ccc(F)cc3F)ncc1N(C)C2=O` (racemic) [Example 257, (+/−) 2-(2-(2,4-difluorophenyl)-1H-imidazol-1-yl)-6a-ethyl-5-methyl-7,8,9,10-tetrahydro-5H-pyrido[2,1-h]pteridin-6(6aH)-one], the IC50 was below 1 µM on PLK2 (setting [1]), 10 to 50 µM on PLK3 and 10 to 50 µM against PLK1.
Take `CC[C@@]12CCCN1c1nc(-c3nccnc3-c3ccccc3)ncc1N(C)C2=O` [Example 316, (S)-6a-ethyl-5-methyl-2-(3-phenylpyrazin-2-yl)-6a,7,8,9-tetrahydropyrrolo[2,1-h]pteridin-6(5H)-one]: the IC50 is 1 to 10 µM on PLK2 (setting [1]), 1 to 10 µM at PLK3 and 10 to 50 µM against PLK1.
As to “7-perdeuteroethyl-8-perdeuteroisopropyl-5-trideuteromethyl-2-(3-phenylpyridin-4-yl)-7,8-dihydropteridin-6(5H)-one [Example 146]”, the half-maximal inhibitory concentration (IC50) on PLK2, on PLK3 and against PLK1 was below 1 µM each time.
In the case of `CC[C@@H]1C(=O)N(C)c2cnc(-n3ccnc3-c3ccc(F)cn3)nc2N1C1CCC1` [Example 224, (R)-8-cyclobutyl-7-ethyl-2-(2-(5-fluoropyridin-2-yl)-1H-imidazol-1-yl)-5-methyl-7,8-dihydropteridin-6(5H)-one], the figures for the concentration for half-maximal inhibition (IC50) on PLK2 (setting [1]), at PLK3 and against PLK1 were below 1 µM, 10 to 50 µM and 1 to 10 µM, respectively.
For `CC[C@@H]1C(=O)N(C)c2cnc(-n3ccnc3-c3ccc(F)cc3Cl)nc2N1CCC(F)(F)F` [Example 282, (R)-2-(2-(2-chloro-4-fluorophenyl)-1H-imidazol-1-yl)-7-ethyl-5-methyl-8-(3,3,3-trifluoropropyl)-7,8-dihydropteridin-6(5H)-one] the same measures were below 1 µM, 10 to 50 µM and 10 to 50 µM.
Consider `CC[C@@H]1C(=O)N(C)c2cnc(-c3ccncc3NS(C)(=O)=O)nc2N1C1CCCC1` [Example 116, (R)—N-(4-(8-cyclopentyl-7-ethyl-5-methyl-6-oxo-5,6,7,8-tetrahydropteridin-2-yl)pyridin-3-yl)methanesulfonamide], for which the half-inhibitory concentration (IC50) is below 1 µM on PLK2 (setting [1]), above 50 µM at PLK3 and 1 to 10 µM against PLK1.
On to `CC[C@@H]1C(=O)N(C)c2cnc(-n3ccnc3-c3cc(F)cc(C(F)(F)F)c3)nc2N1C1CCC1` [Example 174, (R)-8-cyclobutyl-7-ethyl-2-(2-(3-fluoro-5-(trifluoromethyl)phenyl)-1H-imidazol-1-yl)-5-methyl-7,8-dihydropteridin-6(5H)-one], for which the concentration for half-maximal inhibition (IC50) at PLK2 (setting [1]) was below 1 µM; at PLK3, 10 to 50 µM; against PLK1, 1 to 10 µM.
Turning to `CC[C@@H]1C(=O)N(C)c2cnc(-n3ccnc3Cc3ccccc3)nc2N1C1CCCC1` [Example 75, (R)-2-(2-benzyl-1H-imidazol-1-yl)-8-cyclopentyl-7-ethyl-5-methyl-7,8-dihydropteridin-6(5H)-one], the figures for the IC50 on PLK2 (setting [1]), at PLK3 and against PLK1 were below 1 µM, 10 to 50 µM and 1 to 10 µM, respectively.
For `CC[C@]12CCCCN1c1nc(-n3ccnc3-c3cc(F)c(F)c(F)c3)ncc1N(C)C2=O` [Example 267, (R)-6a-ethyl-5-methyl-2-(2-(3,4,5-trifluorophenyl)-1H-imidazol-1-yl)-7,8,9,10-tetrahydro-5H-pyrido[2,1-h]pteridin-6(6aH)-one] the same measures were above 50 µM, above 50 µM and above 50 µM.
For `CC[C@@]12CCCN1c1nc(-c3cn[nH]c3-c3nccs3)ncc1N(C)C2=O` [Example 338, (S)-6a-ethyl-5-methyl-2-(5-(thiazol-2-yl)-1H-pyrazol-4-yl)-6a,7,8,9-tetrahydropyrrolo[2,1-h]pteridin-6(5H)-one] the same measures were 10 to 50 µM, above 50 µM and above 50 µM.
The like results for `CC[C@@H]1C(=O)N(C)c2cnc(-n3ccnc3-n3cccn3)nc2N1C1CCCC1` [Example 89, (R)-2-(2-(1H-pyrazol-1-yl)-1H-imidazol-1-yl)-8-cyclopentyl-7-ethyl-5-methyl-7,8-dihydropteridin-6(5H)-one] were, in that order, below 1 µM, below 1 µM and below 1 µM.
Regarding `CC[C@@H]1C(=O)N(C)c2cnc(-c3cccc(S(C)(=O)=O)c3)nc2N1C1CCCC1` [Example 71, (R)-8-cyclopentyl-7-ethyl-5-methyl-2-(3-(methylsulfonyl)phenyl)-7,8-dihydropteridin-6(5H)-one], the results for the IC50 at PLK2 (setting [1]), on PLK3 and on PLK1 were 1 to 10 µM, 10 to 50 µM and 1 to 10 µM, respectively.
Consider `CC[C@@H]1C(=O)N(C)c2cnc(-n3ccnc3-n3ccccc3=O)nc2N1C1CCCC1` [Example 113, (R)-8-cyclopentyl-7-ethyl-5-methyl-2-(2-(2-oxopyridin-1(2H)-yl)-1H-imidazol-1-yl)-7,8-dihydropteridin-6(5H)-one], for which the IC50 at PLK2 (setting [1]) was below 1 µM; at PLK3 it was 1 to 10 µM; against PLK1, 1 to 10 µM.
With `CC[C@@H]1C(=O)N(C)c2cnc(-n3ccnc3-c3cccc(C#N)c3)nc2N1C(C)C` [Example 228, (R)-3-(1-(7-ethyl-8-isopropyl-5-methyl-6-oxo-5,6,7,8-tetrahydropteridin-2-yl)-1H-imidazol-2-yl)benzonitrile], the half-maximal inhibitory concentration (IC50) was below 1 µM at PLK2 (setting [1]), 10 to 50 µM on PLK3 and 1 to 10 µM at PLK1.
For `CC[C@@H]1C(=O)N(C)c2cnc(-n3ccnc3-c3cccc(Cl)c3)nc2N1C(C)C` [Example 204, (R)-2-(2-(3-chlorophenyl)-1H-imidazol-1-yl)-7-ethyl-8-isopropyl-5-methyl-7,8-dihydropteridin-6(5H)-one] the same measures were below 1 µM, 1 to 10 µM and below 1 µM.
On to `CC[C@@]12CCCCN1c1nc(-n3ccnc3-c3ccc(F)cc3F)ncc1N(C)C2=O` [Example 269, (S)-2-(2-(2,4-difluorophenyl)-1H-imidazol-1-yl)-6a-ethyl-5-methyl-7,8,9,10-tetrahydro-5H-pyrido[2,1-h]pteridin-6(6aH)-one], for which the half-inhibitory concentration (IC50) is below 1 µM on PLK2 (setting [1]), 10 to 50 µM at PLK3 and 10 to 50 µM on PLK1. Also, the “relative PLK2 activity of the enantiomers” value on PLK2 (compared with the opposite enantiomer) is recorded as “more active compound”.
